Source: US7015351B2, “Reaction systems for making N-(phosphonomethyl) glycine compounds” (Monsanto Technology LLC, priority 2000, dated 2006)

Key:
[1] = cited from earlier work
[2] = Solubility of N-(phosphonomethyl)glycine product in water / aqueous reaction mixture; assay type: physicochemical; conditions: oxidation operating temperatures from about 95 to about 105° C.

SMILES | maximum N-(phosphonomethyl)glycine solubility ([1]; aqueous reaction mixture, temperatures of from about 60° C. to 90° C.) | solubility relative to the free acid ([1]; at 25° C.) | concentration at which the product remains soluble [2] [% by weight]
O=C(O)CNCP(=O)(O)O [N-(phosphonomethyl)glycine] | less than 6.5% | – | –
CC(C)N.O=C(O)CNCP(=O)(O)O [isopropylamine salt of N-(phosphonomethyl)glycine] | – | roughly 40 times | ≥ 50
